# According to the supplement of paper PMC10307832:
# What was measured:
# Experiment in all cases: relative viability (nuclei count vs DMSO), 5 days (fraction); higher = more cells survive
# [1] = compound: C1CC(C1)(C(=O)O)C(=O)O.[NH2-].[NH2-].[Pt+2] [Carboplatin] + C[C@@H](Oc1cc(-c2cnn(C3CCNCC3)c2)cnc1N)c1c(Cl)ccc(F)c1Cl [Crizotinib] (partner 1 µM)
# Outline: (§1)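 Lung cancer cell lines were seeded in 1536-well plates and dosed by pin tool the next day, with either a single drug or a fixed anchor-drug dose combined with five library-drug doses (not always all listed) spaced in √10 steps. Five days later, one step fixed the cells and stained their nuclei (final 0.05% Triton X-100, 1% formaldehyde, 1 ug/ml Hoechst), and nuclei were counted on 4× images. Relative viability is the nuclei count in treated wells divided by the count in vehicle wells, and each value is the median of duplicate plates.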
# [2] = compound: CC[C@H](C)N1C=C(C2=C(C=C(C=C21)C3=CN=C(C=C3)N4CCNCC4)C(=O)NCC5=C(C=C(NC5=O)C)C)C [GSK126] + CS(=O)(=O)CCNCc1ccc(-c2ccc3ncnc(Nc4ccc(OCc5cccc(F)c5)c(Cl)c4)c3c2)o1 [Lapatinib] (partner 2 µM)
# Outline: as §1
# [3] = compound: NS(=O)(=O)OC[C@@H]1C[C@@H](n2ccc3c(N[C@H]4CCc5ccccc54)ncnc32)C[C@@H]1O [MLN4924] + C[C@]1(O)C[C@@H](c2nc(-c3ccc4ccc(-c5ccccc5)nc4c3)c3c(N)nccn32)C1 [Linsitinib] (partner 1 µM)
# Outline: as §1
# [4] = compound: NS(=O)(=O)OC[C@@H]1C[C@@H](n2ccc3c(N[C@H]4CCc5ccccc54)ncnc32)C[C@@H]1O [MLN4924] + Cc1cc(Nc2cc(N3CCN(C)CC3)nc(Sc3ccc(NC(=O)C4CC4)cc3)n2)n[nH]1 [Tozasertib] (partner 0.1 µM)
# Outline: as §1
Cell Line,relative viability ([1]; first compound 0.08 µM),relative viability ([1]; first compound 0.253 µM),relative viability ([1]; first compound 0.8 µM),relative viability ([1]; first compound 2.53 µM),relative viability ([1]; first compound 8 µM),relative viability ([2]; first compound 0.08 µM),relative viability ([2]; first compound 0.253 µM),relative viability ([2]; first compound 0.8 µM),relative viability ([2]; first compound 2.53 µM),relative viability ([2]; first compound 8 µM),relative viability ([3]; first compound 0.04 µM),relative viability ([3]; first compound 0.1265 µM),relative viability ([3]; first compound 0.4 µM),relative viability ([3]; first compound 1.265 µM),relative viability ([3]; first compound 4 µM),relative viability ([4]; first compound 0.04 µM),relative viability ([4]; first compound 0.1265 µM),relative viability ([4]; first compound 0.4 µM),relative viability ([4]; first compound 1.265 µM),relative viability ([4]; first compound 4 µM)
HCC-44,0.752,0.822,0.742,0.751,0.668,0.998,1.07,1.04,0.846,1.02,0.561,0.219,0.199,0.156,0.129,0.816,0.471,0.186,0.231,0.272
HCC-78,0.367,0.325,0.315,0.308,0.304,0.713,1.06,0.886,0.711,0.722,0.556,0.355,0.628,0.135,0.147,0.564,0.458,0.453,0.172,0.141
HCC-366,0.518,0.659,0.445,0.465,0.154,1.02,0.948,1.08,1.09,1.12,0.838,0.933,0.513,0.0247,0.0197,0.151,0.173,0.159,0.0404,0.0333
HCC-827,0.97,0.93,0.916,0.816,0.87,0.189,0.179,0.19,0.152,0.197,0.801,0.527,0.468,0.228,0.211,0.415,0.347,0.408,0.165,0.167
HOP-62,1.04,1,0.925,0.88,0.534,1.17,1.05,1.07,1.06,0.937,0.433,0.272,0.151,0.0627,0.0635,0.359,0.198,0.0852,0.049,0.0903
IA-LM,0.772,0.818,0.767,0.694,0.486,1,0.717,0.708,0.762,0.892,0.252,0.197,0.155,0.0583,0.0889,,,,,
LC-2-ad,0.478,0.448,0.388,0.31,0.416,1.05,1.03,0.9,0.894,1.05,0.854,0.533,0.281,0.162,0.13,0.434,0.344,0.362,0.218,0.198
LCLC-103H,1.06,1.01,1.01,1.19,1.01,,,,,,1.33,1.21,1.2,0.316,0.355,0.493,0.533,0.364,0.168,0.137
NCI-H441,0.72,0.925,0.618,0.791,0.655,,,,,,0.47,0.374,0.205,0.111,0.159,0.674,0.444,0.329,0.236,0.22
NCI-H522,,,,,,,,,,,,,,,,0.503,0.502,0.458,0.363,0.304
NCI-H1299,0.932,0.91,0.88,0.885,0.835,0.968,0.997,0.952,0.931,0.929,0.903,0.768,0.441,0.189,0.186,,,,,
NCI-H1395,,,,,,1.04,0.973,1.3,1.14,1.03,0.991,0.771,0.605,0.384,0.377,0.72,0.609,0.475,0.397,0.337
NCI-H1563,0.975,0.901,0.834,0.853,0.854,1.1,1.04,0.957,0.999,0.869,1.73,1.18,0.753,0.606,0.6,,,,,
NCI-H1623,,,,,,,,,,,,,,,,0.42,0.372,0.398,0.203,0.195
NCI-H1648,,,,,,,,,,,,,,,,0.417,0.164,0.247,0.203,0.279
NCI-H1650,1.2,0.968,0.907,0.824,0.533,0.828,0.798,0.739,0.854,0.755,,,,,,0.319,0.299,0.341,0.203,0.164
NCI-H1703,0.835,0.574,0.65,0.971,0.636,1.08,1.14,0.917,1.23,1.09,0.235,0.241,0.157,0.111,0.146,,,,,
NCI-H1792,1.07,1.04,0.945,0.888,0.866,0.973,0.894,0.868,0.982,0.943,0.548,0.664,0.804,0.184,0.124,,,,,
NCI-H1793,,,,,,0.867,0.467,0.647,0.583,0.629,1.12,0.857,0.845,0.327,0.168,0.337,0.356,0.368,0.252,0.168
NCI-H2170,1.13,1.18,1.21,1.13,0.971,0.253,0.266,0.319,0.288,0.27,,,,,,0.722,0.407,0.325,0.151,0.155
NCI-H2342,,,,,,,,,,,,,,,,0.416,0.455,0.533,0.445,0.408
SW 900,,,,,,,,,,,,,,,,0.625,0.474,0.435,0.171,0.114
